Laboratory results published in PMC6979384, “Characterization of the plant homeodomain (PHD) reader family for their histone tail interactions” (Epigenetics & Chromatin, 2020).

Key:
Test in all cases: Histone peptide microarray
Type in all cases: binding, human
KDM7A = details: total n = 4; for Array Heatmap signal, KDM7A: sheet "Array Heatmap", GST-tagged reader, histone peptide array
Summary of the method: (§1)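 Histone peptide library (293 synthetic peptides, single/combinatorial PTMs) arrayed and probed with 0.5 μM purified GST-PHD domain; optimized protocol; quadruplicate mean and SD reported.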

ING4 = details: total n = 4; for Array Heatmap signal, ING4: sheet "Array Heatmap", GST-tagged reader, histone peptide array
Summary of the method: as §1

ING5 = details: total n = 4; for Array Heatmap signal, ING5: sheet "Array Heatmap", GST-tagged reader, histone peptide array
Summary of the method: as §1

DIDO1 = details: total n = 4; for Array Heatmap signal, DIDO1: sheet "Array Heatmap", GST-tagged reader, histone peptide array
Summary of the method: as §1

KDM5B (1) = details: total n = 4; for Array Heatmap signal, KDM5B (1): sheet "Array Heatmap", GST-tagged reader, histone peptide array
Summary of the method: as §1

MORC3 (CW) = details: total n = 4; for Array Heatmap signal, MORC3 (CW): sheet "Array Heatmap", GST-tagged reader, histone peptide array
Summary of the method: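 Purified PHD finger domains fused to GST are screened against 293 synthetic histone peptides bearing one or several post-translational modifications. The protein is used at 0.5 μM, and the signal from four replicate arrays is averaged, with standard deviation given.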

PHF23 = details: total n = 4; for Array Heatmap signal, PHF23: sheet "Array Heatmap", GST-tagged reader, histone peptide array
Summary of the method: as §1

CHD5 (PCC) = details: total n = 4; for Array Heatmap signal, CHD5 (PCC): sheet "Array Heatmap", GST-tagged reader, histone peptide array
Summary of the method: as §1

BPTF (PB) = details: total n = 4; for Array Heatmap signal, BPTF (PB): sheet "Array Heatmap", GST-tagged reader, histone peptide array
Summary of the method: as §1

DPF2 (PPC2W2) = details: total n = 4; for Array Heatmap signal, DPF2 (PPC2W2): sheet "Array Heatmap", GST-tagged reader, histone peptide array
Summary of the method: as §1

CHD4 (PPCC) = details: total n = 4; for Array Heatmap signal, CHD4 (PPCC): sheet "Array Heatmap", GST-tagged reader, histone peptide array
Summary of the method: as §1

PHF21A = details: total n = 4; for Array Heatmap signal, PHF21A: sheet "Array Heatmap", GST-tagged reader, histone peptide array
Summary of the method: as §1

KDM5B (3) = details: total n = 4; for Array Heatmap signal, KDM5B (3): sheet "Array Heatmap", GST-tagged reader, histone peptide array
Summary of the method: as §1

ING1 = details: total n = 4; for Array Heatmap signal, ING1: sheet "Array Heatmap", GST-tagged reader, histone peptide array
Summary of the method: as §1

CHD5 (PPCC) = details: total n = 4; for Array Heatmap signal, CHD5 (PPCC): sheet "Array Heatmap", GST-tagged reader, histone peptide array
Summary of the method: as §1

PHRF1 (RP) = details: total n = 4; for Array Heatmap signal, PHRF1 (RP): sheet "Array Heatmap", GST-tagged reader, histone peptide array
Summary of the method: as §1

BAZ2B = details: total n = 4; for Array Heatmap signal, BAZ2B: sheet "Array Heatmap", GST-tagged reader, histone peptide array
Summary of the method: as §1

TRIM66 (PB) = details: total n = 4; for Array Heatmap signal, TRIM66 (PB): sheet "Array Heatmap", GST-tagged reader, histone peptide array
Summary of the method: as §1

RAG2 = details: total n = 4; for Array Heatmap signal, RAG2: sheet "Array Heatmap", GST-tagged reader, histone peptide array
Summary of the method: as §1

ING2 = details: total n = 4; for Array Heatmap signal, ING2: sheet "Array Heatmap", GST-tagged reader, histone peptide array
Summary of the method: as §1

PHF13 = details: total n = 4; for Array Heatmap signal, PHF13: sheet "Array Heatmap", GST-tagged reader, histone peptide array
Summary of the method: as §1

KDM5A (1) = details: total n = 4; for Array Heatmap signal, KDM5A (1): sheet "Array Heatmap", GST-tagged reader, histone peptide array
Summary of the method: as §1

KDM4C (TTP) = details: total n = 4; for Array Heatmap signal, KDM4C (TTP): sheet "Array Heatmap", GST-tagged reader, histone peptide array
Summary of the method: as §1

TAF3 = details: total n = 4; for Array Heatmap signal, TAF3: sheet "Array Heatmap", GST-tagged reader, histone peptide array
Summary of the method: as §1

AIRE (PP) = details: total n = 4; for Array Heatmap signal, AIRE (PP): sheet "Array Heatmap", GST-tagged reader, histone peptide array
Summary of the method: as §1

SP140L = details: total n = 4; for Array Heatmap signal, SP140L: sheet "Array Heatmap", GST-tagged reader, histone peptide array
Summary of the method: as §1

MLL5 = details: total n = 4; for Array Heatmap signal, MLL5: sheet "Array Heatmap", GST-tagged reader, histone peptide array
Summary of the method: as §1

ING3 = details: total n = 4; for Array Heatmap signal, ING3: sheet "Array Heatmap", GST-tagged reader, histone peptide array
Summary of the method: as §1

KDM5A (3) = details: total n = 4; for Array Heatmap signal, KDM5A (3): sheet "Array Heatmap", GST-tagged reader, histone peptide array
Summary of the method: as §1

PHF8 = details: total n = 4; for Array Heatmap signal, PHF8: sheet "Array Heatmap", GST-tagged reader, histone peptide array
Summary of the method: as §1

PHF2 = details: total n = 4; for Array Heatmap signal, PHF2: sheet "Array Heatmap", GST-tagged reader, histone peptide array
Summary of the method: as §1

H3K9ac + K14ac: H3 1-20
Array Heatmap signal (histone peptide microarray) (KDM7A; GST-tagged KDM7A, sheet Array Heatmap, each array performed twice): 0.4362
Array Heatmap signal (histone peptide microarray) (ING4; GST-tagged ING4, sheet Array Heatmap, each array performed twice): 0.4734
Array Heatmap signal (histone peptide microarray) (ING5; GST-tagged ING5, sheet Array Heatmap, each array performed twice): 0.3504
Array Heatmap signal (histone peptide microarray) (DIDO1; GST-tagged DIDO1, sheet Array Heatmap, each array performed twice): 0.6252
Array Heatmap signal (histone peptide microarray) (KDM5B (1); GST-tagged KDM5B (1), sheet Array Heatmap, each array performed twice): 0.9142
Array Heatmap signal (histone peptide microarray) (MORC3 (CW); GST-tagged MORC3 (CW = CW-type Zn-finger), sheet Array Heatmap, each array performed twice): 0.5873
Array Heatmap signal (histone peptide microarray) (PHF23; GST-tagged PHF23, sheet Array Heatmap, each array performed twice): 0.5024
Array Heatmap signal (histone peptide microarray) (CHD5 (PCC); GST-tagged CHD5 (PCC = PHD + Dual Chromodomain), sheet Array Heatmap, each array performed twice): 0.9958
Array Heatmap signal (histone peptide microarray) (BPTF (PB); GST-tagged BPTF (PB = PHD + Bromodomain), sheet Array Heatmap, each array performed twice): 0.3651
Array Heatmap signal (histone peptide microarray) (DPF2 (PPC2W2); GST-tagged DPF2 (PPC2W2 = Dual PHD + C2W2-type Zn-finger), sheet Array Heatmap, each array performed twice): 1
Array Heatmap signal (histone peptide microarray) (CHD4 (PPCC); GST-tagged CHD4 (PPCC = Dual PHD + Dual Chromodomain), sheet Array Heatmap, each array performed twice): 0.673
Array Heatmap signal (histone peptide microarray) (PHF21A; GST-tagged PHF21A, sheet Array Heatmap, each array performed twice): 0.5392
Array Heatmap signal (histone peptide microarray) (KDM5B (3); GST-tagged KDM5B (3), sheet Array Heatmap, each array performed twice): 0.6203
Array Heatmap signal (histone peptide microarray) (ING1; GST-tagged ING1, sheet Array Heatmap, each array performed twice): 0.5104
Array Heatmap signal (histone peptide microarray) (CHD5 (PPCC); GST-tagged CHD5 (PPCC = Dual PHD + Dual Chromodomain), sheet Array Heatmap, each array performed twice): 0.6001
Array Heatmap signal (histone peptide microarray) (PHRF1 (RP); GST-tagged PHRF1 (RP), sheet Array Heatmap, each array performed twice): 1
Array Heatmap signal (histone peptide microarray) (BAZ2B; GST-tagged BAZ2B, sheet Array Heatmap, each array performed twice): 1
Array Heatmap signal (histone peptide microarray) (TRIM66 (PB); GST-tagged TRIM66 (PB = PHD + Bromodomain), sheet Array Heatmap, each array performed twice): 0.9112
Array Heatmap signal (histone peptide microarray) (RAG2; GST-tagged RAG2, sheet Array Heatmap, each array performed twice): 0.2862
Array Heatmap signal (histone peptide microarray) (ING2; GST-tagged ING2, sheet Array Heatmap, each array performed twice): 0.5932
Array Heatmap signal (histone peptide microarray) (PHF13; GST-tagged PHF13, sheet Array Heatmap, each array performed twice): 0.6041
Array Heatmap signal (histone peptide microarray) (KDM5A (1); GST-tagged KDM5A (1), sheet Array Heatmap, each array performed twice): 0.5569
Array Heatmap signal (histone peptide microarray) (KDM4C (TTP); GST-tagged KDM4C (TTP = Tandem Tudor domain + PHD), sheet Array Heatmap, each array performed twice): 0.5191
Array Heatmap signal (histone peptide microarray) (TAF3; GST-tagged TAF3, sheet Array Heatmap, each array performed twice): 0.3149
Array Heatmap signal (histone peptide microarray) (AIRE (PP); GST-tagged AIRE (PP), sheet Array Heatmap, each array performed twice): 0.699
Array Heatmap signal (histone peptide microarray) (SP140L; GST-tagged SP140L, sheet Array Heatmap, each array performed twice): 0.3541
Array Heatmap signal (histone peptide microarray) (MLL5; GST-tagged MLL5, sheet Array Heatmap, each array performed twice): 0.5394
Array Heatmap signal (histone peptide microarray) (ING3; GST-tagged ING3, sheet Array Heatmap, each array performed twice): 0.4549
Array Heatmap signal (histone peptide microarray) (KDM5A (3); GST-tagged KDM5A (3), sheet Array Heatmap, each array performed twice): 0.5178
Array Heatmap signal (histone peptide microarray) (PHF8; GST-tagged PHF8, sheet Array Heatmap, each array performed twice): 0.3842
Array Heatmap signal (histone peptide microarray) (PHF2; GST-tagged PHF2, sheet Array Heatmap, each array performed twice): 0.4774

H3K9ac + S10p: H3 1-20
Array Heatmap signal, KDM7A (KDM7A): 0.5012
Array Heatmap signal, ING4 (ING4): 0.4766
Array Heatmap signal, ING5 (ING5): 0.3597
Array Heatmap signal, DIDO1 (DIDO1): 0.6052
Array Heatmap signal, KDM5B (1) (KDM5B (1)): 0.6761
Array Heatmap signal, MORC3 (CW) (MORC3 (CW)): 0.3729
Array Heatmap signal, PHF23 (PHF23): 0.5104
Array Heatmap signal, CHD5 (PCC) (CHD5 (PCC)): 0.846
Array Heatmap signal, BPTF (PB) (BPTF (PB)): 0.3364
Array Heatmap signal, DPF2 (PPC2W2) (DPF2 (PPC2W2)): 0.6808
Array Heatmap signal, CHD4 (PPCC) (CHD4 (PPCC)): 0.5496
Array Heatmap signal, PHF21A (PHF21A): 0.4788
Array Heatmap signal, KDM5B (3) (KDM5B (3)): 0.53
Array Heatmap signal, ING1 (ING1): 0.4982
Array Heatmap signal, CHD5 (PPCC) (CHD5 (PPCC)): 0.5687
Array Heatmap signal, PHRF1 (RP) (PHRF1 (RP)): 0.4935
Array Heatmap signal, BAZ2B (BAZ2B): 0.4929
Array Heatmap signal, TRIM66 (PB) (TRIM66 (PB)): 0.5818
Array Heatmap signal, RAG2 (RAG2): 0.2427
Array Heatmap signal, ING2 (ING2): 0.597
Array Heatmap signal, PHF13 (PHF13): 0.5949
Array Heatmap signal, KDM5A (1) (KDM5A (1)): 0.5046
Array Heatmap signal, KDM4C (TTP) (KDM4C (TTP)): 0.5441
Array Heatmap signal, TAF3 (TAF3): 0.2808
Array Heatmap signal, AIRE (PP) (AIRE (PP)): 0.6057
Array Heatmap signal, SP140L (SP140L): 0.3709
Array Heatmap signal, MLL5 (MLL5): 0.5353
Array Heatmap signal, ING3 (ING3): 0.4478
Array Heatmap signal, KDM5A (3) (KDM5A (3)): 0.462
Array Heatmap signal, PHF8 (PHF8): 0.3696
Array Heatmap signal, PHF2 (PHF2): 0.4212

H3K9me1: H3 1-20 [Peptide H3K9me1]
Array Heatmap signal, KDM7A (KDM7A): 0.3983
Array Heatmap signal, ING4 (ING4): 0.4656
Array Heatmap signal, ING5 (ING5): 0.3437
Array Heatmap signal, DIDO1 (DIDO1): 0.6415
Array Heatmap signal, KDM5B (1) (KDM5B (1)): 0.68
Array Heatmap signal, MORC3 (CW) (MORC3 (CW)): 0.4491
Array Heatmap signal, PHF23 (PHF23): 0.5057
Array Heatmap signal, CHD5 (PCC) (CHD5 (PCC)): 0.8558
Array Heatmap signal, BPTF (PB) (BPTF (PB)): 0.3459
Array Heatmap signal, DPF2 (PPC2W2) (DPF2 (PPC2W2)): 0.6871
Array Heatmap signal, CHD4 (PPCC) (CHD4 (PPCC)): 0.6171
Array Heatmap signal, PHF21A (PHF21A): 0.4979
Array Heatmap signal, KDM5B (3) (KDM5B (3)): 0.4949
Array Heatmap signal, ING1 (ING1): 0.4934
Array Heatmap signal, CHD5 (PPCC) (CHD5 (PPCC)): 0.5585
Array Heatmap signal, PHRF1 (RP) (PHRF1 (RP)): 0.6479
Array Heatmap signal, BAZ2B (BAZ2B): 0.4746
Array Heatmap signal, TRIM66 (PB) (TRIM66 (PB)): 0.6422
Array Heatmap signal, RAG2 (RAG2): 0.2526
Array Heatmap signal, ING2 (ING2): 0.5783
Array Heatmap signal, PHF13 (PHF13): 0.594
Array Heatmap signal, KDM5A (1) (KDM5A (1)): 0.4835
Array Heatmap signal, KDM4C (TTP) (KDM4C (TTP)): 0.5061
Array Heatmap signal, TAF3 (TAF3): 0.2561
Array Heatmap signal, AIRE (PP) (AIRE (PP)): 0.5694
Array Heatmap signal, SP140L (SP140L): 0.3427
Array Heatmap signal, MLL5 (MLL5): 0.5407
Array Heatmap signal, ING3 (ING3): 0.4876
Array Heatmap signal, KDM5A (3) (KDM5A (3)): 0.4739
Array Heatmap signal, PHF8 (PHF8): 0.3494
Array Heatmap signal, PHF2 (PHF2): 0.4569
